Activity calls are given as the source filed them.
Assays:
Assay type in all cases: functional, organism-based
[1] = test system: Mycotypha microspora; experiment: Antifungal activity against Mycotypha microspora at 50 ug/disk
[2] = test system: Priestia megaterium; experiment: Antibacterial activity against Bacillus megaterium at 50 ug/disk
[3] = test system: Microbotryum violaceum; experiment: […] activity against Microbotryum violaceum at 50 ug/disk
[4] = test system: Escherichia coli; experiment: Antibacterial activity against Escherichia coli at 50 ug/disk
[5] = test system: Aspergillus ruber; experiment: Antifungal activity against Eurotium rubrum at 50 ug/disk

Measured: Activity

CC1=C[C@@H]2[C@@H](C(C)C)CC=C(C)[C@@H]2C[C@H]1O
inactive: all assays above

CC(=O)O[C@@H]1C[C@H]2C(C)=CC[C@H](C(C)C)[C@H]2C=C1C
inactive: all assays above

Reference: ChEMBL document CHEMBL1151984, “Dietary derived sesquiterpenes from Phyllodesmium lizardensis” (J Nat Prod, 2009)
